The values below come from PMC4320098, “Identification and Characterization of a Novel Phosphodiesterase from the Metagenome of an Indian Coalbed” (PLoS ONE, 2015).

One data set concerns the target PdeM (uncultured organism, UniProt S5THN5). Put plainly: p-nitrophenol release, absorbance […] nm, Michaelis-Menten non-linear fit. The class given is biochemical. To be noted: 2 mM MnCl2, 50 mM Tris-HCl pH 8.5, 5 mM beta-ME, 10 mM NaCl, 25 °C, 30 min.
Data set [1] deals with O=[N+]([O-])c1ccc(OP(=O)(O)Oc2ccc([N+](=O)[O-])cc2)cc1. Put plainly: purified protein. To be noted: pH 8.5; 25.0 °C. The class given is biochemical, uncultured organism.

A word on the Km: it is the concentration of substrate that gives half-maximal velocity.

PdeM, sequence (S5THN5 entry or part of it): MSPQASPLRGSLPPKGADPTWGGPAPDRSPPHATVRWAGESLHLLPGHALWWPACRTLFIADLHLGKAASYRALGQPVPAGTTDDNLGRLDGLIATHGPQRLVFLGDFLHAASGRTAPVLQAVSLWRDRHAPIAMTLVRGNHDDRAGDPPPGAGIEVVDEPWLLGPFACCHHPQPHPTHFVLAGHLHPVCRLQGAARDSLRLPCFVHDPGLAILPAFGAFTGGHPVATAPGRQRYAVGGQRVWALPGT

As to `O=[N+]([O-])c1ccc(OP(=O)(O)c2ccccc2)cc1` [pNPPP], the Km on PdeM was 7.2 ± 1.4 mM.

As to PdeM (uncultured organism), in data set [1], the Km was 10.21 ± 1.6 mM.
